Assay results as given in US10421749B2, “Pyrone derivatives for use as antiviral agents” (priority 2015, dated 2019).
“Also recorded” adds a separate entry of the source.

Key:
[1] = system: HIV; assay: Time-of-addition (TOA) assay in LC5-RIC cells; assay type: cell-based, HIV-1; details: FIG. 2
Procedure: TOA assays were performed in 96-well plates using a standard assay setup with some modifications. HIV-1IIIB virus preparations were added to LC5-RIC cultures at time point 0. Anti-HIV compounds were added to the cultures at different time points after addition of virus preparations. Inhibitor concentrations were ≥2× EC50 in each well. At least 15 different time points were evaluated for each compound in at least three wells per time point. Cultures were incubated with virus for 48 h and subsequently analyzed for cellular reporter gene expression and/or infectious virus titers in culture supernatants.
To further characterize the inhibitory effects of Compound 1, HIV preparations were added to LC5-RIC cells at the time point 0. Compound 1 was added to the cultures at different time points after virus addition (i.e., p.i.). Plates were incubated for a total period of 48 h after virus addition, and cultures were assayed for HIV reporter expression (step 1) or for amounts of infectious virus in culture supernatants (step 2). Fluorescent signal intensities of treated cultures were related to those of cultures infected without inhibitors (set at 100% infection).

[2] = system: HepG2.2.15 cells; assay: Cell viability of HepG2.2.15 cells by cell titer blue assay; assay type: cell-based, human; details: three days treatment, 1 μM to 1 nM, compared to untreated control cells; FIG. 4A
Procedure: (§1) The human hepatoma cell line HepG2.2.15, stably expressing HBV particles, was seeded in a 48 well format at a density of 5×10^4 the day before starting the treatment. Next day the cells were treated with 1 μM, 100 nM, 10 nM and 1 nM of Compound 1 with 3 independent biological replicates each. The cells were cultured in differentiation medium containing 1.8% DMSO, to slow down cell growth and enhance viral replication. Three days after treatment, cell viability (FIG. 4A) was determined by cell titer blue assay, cell supernatants were analyzed for HBeAg and newly released viral particles (FIGS. 4B and C) and finally cells were harvested to analyze for intracellular HBV DNA (FIG. 4D).

[3] = system: HIV-1 expression in HNSCLatGFP1.1 cells; assay: Induced expression of latent HIV-1-gfp reporter virus in HNSCLatGFP1.1 cells (GFP, FACS); assay type: cell-based, human; details: induction with TNF; 0.5, 5, 50 nM compound; FIG. 3A
Procedure: A) Induction of expression of HIV-1 in HNSCLatGFP1.1 cells using TNF: 1: untreated (negative control); 2: TNF (positive control); 3: 0.5 nM Compound 1; 4: 5 nM Compound 1; 5: 50 nM Compound 1; 6: 0.5 nM Compound 1+TNF; 7: 5 nM Compound 1+TNF; 8: 50 nM Compound 1+TNF. B) Induction of expression of HIV-1 in HNSCLatGFP1.1 cells using TNF+SAHA: 1: mock; 2: TNF+SAHA; 3: 50 nM Compound 1; 4: TNF+SAHA+50 nM Compound 1. C) Induction of expression of HIV-1 in HNSCLatGFP1.1 cells using SAHA: 1: untreated (negative control); 2: SAHA (positive control); 3: 0.5 nM Compound 1; 4: 5 nM Compound 1; 5: 50 nM Compound 1; 6: 0.5 nM Compound 1+SAHA; 7: 5 nM Compound 1+SAHA; 8: 50 nM Compound 1+SAHA.
To further characterize the inhibitory effects of Compound 1, a further cell line (HNSCLatGFP1.1) was established into the genome of which the genome of a HIV-1-gfp reporter virus has been stably integrated.
Reference cultures were either untreated (minimum signal; lane 1 of FIG. 3A) or exposed to TNF (maximum signal; lane 2 of FIG. 3A). HNSCLatGFP1.1 cells were exposed to different concentrations of Compound 1 either alone (lanes 3 to 5 of FIG. 3A) or together with TNF (lanes 6 to 8 of FIG. 3A).

[4] = system: LC5-RIC cells; assay: MTT cell viability assay of LC5-RIC test cultures; assay type: cell-based; details: concentration range tested 0 to 120 μM; FIG. 1C
Description: Effects of compounds on cell viability wasy measured by MTT assay, Cell Titre Blue Assay and Cell Tox Green Assay. The MTT assay and the Cell Titre Blue Assay evaluate metabolic activity of cells, The Cell Tox Green assay measures cell death (i.e. loss of cell membrane integrity). The MTT assay measures the reduction of the yellow MTT to purple formazan by mitochondrial enzymes (Mosmann, T., J. Immunol. Methods 65 (1983), 55-63) Immediately following measurement of reporter expression, cultures were incubated with 100 μl of MTT solution (0.5 mg of MTT; Sigma, Taufkirchen, Germany) in 100 μl of culture medium for 2 h under standard culture conditions. MTT solution was carefully removed, and cells were lysed by addition of 100 μl of lysis solution (10% [wt/vol] SDS and 0.6% [vol/vol] acetic acid in dimethyl sulfoxide [DMSO]). The released MTT formazan crystals were dissolved by gentle agitation, and MTT formazan concentrations were determined by an ELISA plate reader (SmartSpec Plus; Bio-Rad, Muenchen, Germany) or Tecan Infinite M200 at a test wavelength of 570 nm and a reference wavelength of 630 nm. Values for treated HIV-infected cultures were related to those of untreated, HIV-infected cultures in the same plate. […]

[5] = system: HBV; assay: HBV replication in HepG2.2.15 cells (HBeAg, released viral particles, intracellular HBV DNA); assay type: cell-based; details: three days treatment, 1 μM to 1 nM
Procedure: Antiviral effect of Compound 1 on HBV replication. A) After a three days treatment of HepG2.2.15 cells with Compound 1 in a concentration range from 1 μM to 1 nM, the cell viability was unchanged compared to untreated control cells.
as §1

[6] = system: HIV-1; assay: microbe, parasite or virus in culture; details: Human immunodeficiency virus 1, 48 h, read-out: EC50 with respect to HIV replication
Procedure: (§2) LC5-RIC cells were seeded into 96-well plates (μCLEAR-Plate Black; Greiner Bio-One, Kremsmuenster, Germany), using only the 60 inner wells to avoid adverse effects caused by variations in the culture conditions in the outer wells. Cells were seeded at a density of 10^4 per well at 24 h prior to infection. Compounds were tested either at single concentrations or in serial dilutions, with each concentration assayed in triplicate. Compound solution (100 μl) followed by 20 μl of HIV inoculum (10^8 RNA copies/ml inoculum for KE37.1-derived HIV-1IIIB or 28.8 ng of p24 for HIV-1LAI derived from HEK 293T cells) was added to each well. To assay maximum infection (i.e., 100%), HIV inoculum was added to LC5-RIC cells incubated with compound-free medium. Controls for background expression consisted of LC5-RIC cells cultured in conditioned medium from KE37.1 (i.e., uninfected) cells. Plates were incubated for 48 h after virus addition, after which cultures were assayed for cellular reporter expression and for titers of infectious virus in supernatant fluids. Reporter expression was determined by measuring the total fluorescent signal intensity of each culture with a fluorescence microplate reader (Fluoroskan Ascent; ThermoFisher, Schwerte, Germany) at an excitation filter wavelength of 544 nm and an emission filter wavelength of 590 nm or with a Tecan infinite M200 (Tecan, Crailsheim, Germany) at the monochromator wavelengths 552 nm for excitation and 596 for emission. To quantify infectious virus titers, supernatant fluids (30 μl of HIV-1IIIB or 20 μl for HIV-1LAI) from cultures in the first plate were transferred to a second plate with uninfected LC5-RIC cells in exact replicate, and total fluorescent signal intensities of cultures in the second plate were measured 72 h after transfer.
(§3) Curve fits and EC50 calculations were done with Prism, version 4 (GraphPad Software, La Jolla, Calif.), using the equation for sigmoidal dose response with variable slope with the following set constraint parameters: fixed top of 100 and fixed bottom of 0. As internal acceptance criteria, R^2 values had to be ≥0.9.
(§4) To evaluate the inhibitory effects of the pyrone derivatives described herein, the EASY-HIT assay was used as disclosed in Kremp et al., supra. Briefly, a pyrone compound (or another test compound) was added to LC5-RIC cultures (or other uninfected cells, such as PBMCs) in microtiter plates, HIV preparations were added within 30 min of beginning treatment, and test cultures were incubated for 48 h after virus addition. Reference cultures were either exposed to the virus without test compound (maximum signal) or not exposed to the virus (minimum signal). Effects of test compounds on HIV infection of LC5-RIC cultures were determined in two steps. The first step quantified reporter expression by assaying fluorescent signal intensities of cells in test cultures. The second step quantified the infectious virus produced in test cultures by transferring aliquots of supernatants of test cultures to uninfected LC5-RIC cells (or other uninfected cells, such as PBMCs), followed by measurement of fluorescent signal intensities at 72 h after transfer. Cells evaluated for reporter expression were subjected to an MTT assay to detect deleterious effects of test compounds on cell viability under test conditions.
(§5) Briefly, the test compound) was added to LC5-RIC cultures in microtiter plates. HIV-1 virus preparations were added within 30 min of beginning treatment with the text compound and test cultures were incubated for 48 h after virus addition. Reference cultures were either exposed to the virus without test compound (maximum signal) or not exposed to the virus (minimum signal).

[7] = system: HIV-1; details: LC5-RIC cells; for inhibition of HIV-1 replication: 48 h, steps 1 and 2, FIG. 5; for inhibition of the late phase of HIV-1 replication: step 2 (supernatant transfer, 72 h), FIG. 6, FIG. 7
Procedure: as §2, §3, §4, §5

Q: With `COc1oc([C@H]2C/C(=C/C(C)=C/c3ccc([N+](=O)[O-])cc3)CO2)c(C)c(=O)c1C` [Compound 1] as the compound, how does the “time between infection and addition of compound at which HIV replication was still blocked” value ([1]; LC5-RIC cells, 48 h total incubation) read?
A: 30 h

Q: And the “stage of HIV replication inhibited (time-of-addition)” value ([1]; compound added at different time points after virus addition, 48 h total)?
A: inhibited the HIV replication at a very early stage

Q: What about the “cell viability of HepG2.2.15 cells” value [2] of the same compound?
A: unchanged; also recorded: without affecting cell viability

Q: And the “inhibition of virus production in HNSCLatGFP1.1 cells” value [3]?
A: able to inhibit virus production in HNSCLatGFP1.1 cells in a dose dependent manner

Q: What about the “toxic effect (MTT cell viability)” value [4] of the same compound?
A: did not exhibit any toxic effect

Q: And the IC50 ([5]; Hepatitis B virus, 72 h, n=3, read-out: IC50 of viral replication markers (HBeAg, released viral particles, intracellular HBV DNA))?
A: 2 to 20 nM

Q: What about the “viral replication markers (HBeAg, newly released viral particles, intracellular HBV DNA)” value ([5]; FIG. 4B-D) of the same compound?
A: strongly reduced in a dose dependent fashion

Q: What about the EC50 [6] of the same compound?
A: 0.6 nM

Q: Which “inhibition of HIV-1 replication” value [7] does the source give for `COc1oc([C@H]2C/C(=C/C(C)=C/c3ccc(Cl)cc3)CO2)c(C)c(=O)c1C` [Compound 4] here?
A: inhibit HIV-1 replication

Q: Which “inhibition of HIV-1 replication” value [7] does the source give for `COc1oc([C@H]2C/C(=C/C(C)=C/c3cccc(Cl)c3)CO2)c(C)c(=O)c1C` [Compound 19] here?
A: inhibit HIV-1 replication

Q: With `COc1oc([C@H]2C/C(=C/C(C)=C/c3ccc(F)cc3F)CO2)c(C)c(=O)c1C` [Compound 21] as the compound, how does the “inhibition of the late phase of HIV-1 replication” value [7] read?
A: highest activities

Q: `COc1oc([C@H]2C/C(=C/C(C)=C/c3ccc(C(F)(F)F)cc3)CO2)c(C)c(=O)c1C` [Compound 22] was tested. Which “inhibition of the late phase of HIV-1 replication” value [7] did it give?
A: highest activities

Q: Which “inhibition of the late phase of HIV-1 replication” value [7] does the source give for `COc1ccc(/C=C(C)/C=C2\CO[C@@H](c3oc(OC)c(C)c(=O)c3C)C2)cc1OC` [Compound 23] here?
A: lowest activity
